Laboratory results: patent publication US12115178B2, “Acylated active agents and methods of their use for the treatment of autoimmune disorders” (Flagship Pioneering Innovations V, Inc., priority 2018, dated 2024)

Legend:
AhR = AhR activation in Caco-2 cells through CYP1A1 mRNA expression; conditions: overnight
Method: Caco-2 cells from American Type Culture Collection (ATCC) were plated in a sterile tissue culture treated 96-well plate (ThermoFisher) at […], and grown overnight at 37° C., 5% CO2 in DMEM complete (Gibco) in order to achieve confluence. After the incubation medium was aspirated off of the Caco-2 monolayers, tissues were then washed with 200 μL of warmed PBS solution, and subsequently 190 μL of pre-warmed growth medium was added to each well. Compounds of interest were diluted at a 20× concentration in growth medium containing 2% DMSO, and 10 μL of compound solutions were added to respective wells in triplicate. Compounds where incubated overnight at 37° C., 5% CO2. 2-(1′H-indole-3′-carbonyl)-thiazole-4-carboxylic acid methyl ester (ITE) was used as the positive control for AhR activation at 1 and 100 μM concentrations. At the end of the incubation, medium was aspirated off of the Caco-2 cells, and the cells washed with 100 μL of cold PBS solution. RNA was extracted via the TaqMan™ Gene Expression Cells-to-CT™ Kit (ThermoFisher) according to the manufacturers protocol. The QuantStudio 6 Flex (Applied Biosciences) was used to analyze mRNA levels of CYP1A1 using GAPDH as the endogenous control. TaqMan™ probe sets for both genes were acquired from ThermoFisher. Samples were run in triplicate and data was analyzed using the QuantStudio software and reported as linear (Table 1) and log 2(ΔΔCT) values. Statistical analysis was performed using a two-tailed t-test comparing CYP1A1 levels in the presence of each individual compound to the vehicle negative control.

neutrophil = test: Neutrophil chemokine production assay; format: cell-based, human; conditions: 12 h
Method: A volume 25 mL of human blood was layered over 15 mL of Histopaque®-1077 and centrifuged at 500 g, RT, for 30 min with no break applied to the centrifuge. The PBMC band and Histopaque®-1077 layer were removed leaving behind the bottom red layer which was mixed with 40 mL of 1× red blood cell (RBC) lysis buffer (Sigma-Aldrich) was and split into two 50 mL tubes. The volume for both fractions was brought to 50 mL with RBC lysis buffer, mixed by inversion, and then incubated at RT for 10 min. Solutions were centrifuged at 250 g, for 10 min at RT and the supernatant liquids removed. The reddish pellets were re-suspended in 1 mL of RBC lysis buffer and combined. The cell suspension was incubated for 5 min at RT in RBC lysis buffer. After incubation 45 mL of Hanks Balanced Salt Solution with no calcium, magnesium or phenol red (HBSS−) was added, the cell suspension was spun (250 g for 10 min at RT), and supernatant liquids were removed. The white pellet was re-suspended in 1 mL of HBSS−, and cell counts were determined. The neutrophil cell suspension was brought to a concentration of 1.11e6 cells/mL in RPMI complete (Sigma-Aldrich), and 180 μL of cell suspension was transferred to all wells within a sterile 96-well tissue culture treated plate resulting in 2.0e5 cells/well. […] After incubation, 10 μL of 2 μg/mL LPS solution in RPMI complete was added to each well except for control wells, which received an additional 10 μL of media. Cells were incubated for 12 h (37° C., 5% CO2), after which plates were centrifuged at 250 g, RT, for 5 min and supernatant liquids were obtained and stored at −80° C. until analyzed via Luminex® Multiplex Assay for various chemokines and cytokines. Three data points were acquired from two different blood donors and averaged.

[1] = test system: Primary Human Peripheral Blood Mononuclear Cells (PBMCs); test: Inflammatory signals in LPS-treated primary human PBMCs; format: cell-based; conditions: 100 uM, 24 hours
Method: Human donor blood (8 mL) was collected in sodium citrate CPT tubes and centrifuged at 1,600×g for 20 minutes at room temperature. Buffy coat containing PBMCs was collected and transferred to a 50 mL conical tube containing 30 mL of RPMI-1640 medium at room temperature (supplemented with penicillin-streptomycin). PBMCs samples were centrifuged at 400×g for 10 minutes at 10° C. The pelleted PBMCs were washed twice in 10 ml of RPMI-1640 medium (supplemented with penicillin-streptomycin), then resuspended in RPMI-1640 medium (supplemented with penicillin-streptomycin, fetal bovine serum, and L-Glutamine). PBMCs were filtered through a 70 micron mesh to remove any cellular debris. […] PBMCs in a 96-well plate were rested for 30 minutes in a 37° C., 5% CO2 incubator, then subsequently treated with 10 μl of indicated compound. After 2 hours 10 μL of LPS (O111:B4) 1 mg/mL was added to test wells. After 24 hours of incubation at 37° C., 5% CO2, 100 μL of cell supernatant was collected and transferred to a 96-well plate (non-tissue treated, flat bottom). The plate was centrifuged at 350×g for 5 minutes at room temperature, and then the clear supernatant transferred to a new 96-well plate (non-tissue treated, flat bottom). The remaining cells were tested for viability using CellTiter-Glo® Luminescent Cell Viability Assay (Promega). The supernatant was analyzed for TNFα, IL-6 and […] Systems), using Luminex Immunoassay Technology (MAGPIX System). Cytokine levels of LPS treated DMSO control samples were set to 100%, and compound treated samples were expressed relative to this (Table 3).

Caco-2 colonocytes = test: Human Caco-2 barrier integrity assay (TEER); format: cell-based; conditions: 48 hours
Method: At 70-80% confluency, cells were trypsinized and seeded in 0.4 cm^2 transwell collagen I coated membranes with supplemented DMEM in both apical and basolateral compartments. Cells were seeded at a density of 200,000 cells per well and maintained for 10 days to form a polarized barrier with a TransEpithelial […] After 48 hours, TEER readings were taken again and viability was measured by CellTiter 96® AQueous One Solution Cell Proliferation Assay (Promega). The percent change in TEER over the 48 hours was determined and normalized to the 0.1% DMSO control (Table 6).

O=C(O)c1ccccc1 [Benzoic acid]
Average CYP1A1 mRNA levels (AhR; 10.0 μM): + (+ = >2-fold Vehicle)
Average CYP1A1 mRNA levels (AhR; 100.0 μM): + (+ = >2-fold Vehicle)

CC(O)CC(=O)O (stereo not drawn) [beta-hydroxybutyric acid, β-hydroxybutyric acid]
% IL-8 (Vehicle + LPS = 100%) (neutrophil; 200.0 μM): − (− = >90% Vehicle)
% MIP-1α (Vehicle + LPS = 100%) (neutrophil; 200.0 μM): − (− = >90% Vehicle)
% MIP-1β (DMSO + LPS = 100%) (neutrophil; 200.0 μM): + (+ = <90% Vehicle)
% IL-8 (Vehicle + LPS = 100%) (neutrophil; 2000.0 μM): + (+ = <90% Vehicle)
% MIP-1α (Vehicle + LPS = 100%) (neutrophil; 2000.0 μM): ++ (++ = <70%Vehicle)
% MIP-1β (DMSO + LPS = 100%) (neutrophil; 2000.0 μM): + (+ = <90% Vehicle)
IL1β % DMSO control [1]: − ((−) >110% DMSO)
IL6 % DMSO control [1]: = ((=) 90%> <110% DMSO)
TNFα % of DMSO control [1]: − ((−) >110% DMSO)
% Change in TEER from DMSO (Caco-2 colonocytes; 200 μM + cytokines): + (125%> <150%: +)
% Change in TEER from DMSO (Caco-2 colonocytes; 2 mM + cytokines): − (<125%: −)

Cn1cc(C[C@H](N)C(=O)O)c2ccccc21 [1-methylindole-3-alanine]
Average CYP1A1 mRNA levels (AhR; 10.0 μM): + (+ = >2-fold Vehicle)
Average CYP1A1 mRNA levels (AhR; 100.0 μM): +++ (+++ = >10-fold Vehicle)

c1ccc2[nH]ccc2c1 [indole]
Average CYP1A1 mRNA levels (AhR; 1000.0 μM): + (+ = >2-fold Vehicle)

OCc1c[nH]c2ccccc12 [indole-3-carbinol]
Average CYP1A1 mRNA levels (AhR; 1000.0 μM): + (+ = >2-fold Vehicle)

CC(=O)O [acetate]
% IL-8 (Vehicle + LPS = 100%) (neutrophil; 500.0 μM): − (− = >90% Vehicle)
% MIP-1α (Vehicle + LPS = 100%) (neutrophil; 500.0 μM): + (+ = <90% Vehicle)
% MIP-1β (DMSO + LPS = 100%) (neutrophil; 500.0 μM): + (+ = <90% Vehicle)
% IL-8 (Vehicle + LPS = 100%) (neutrophil; 1000.0 μM): − (− = >90% Vehicle)
% MIP-1α (Vehicle + LPS = 100%) (neutrophil; 1000.0 μM): ++ (++ = <70%Vehicle)
% MIP-1β (DMSO + LPS = 100%) (neutrophil; 1000.0 μM): + (+ = <90% Vehicle)
% IL-8 (Vehicle + LPS = 100%) (neutrophil; 3000.0 μM): +++ (+++ = <50% Vehicle)
% MIP-1α (Vehicle + LPS = 100%) (neutrophil; 3000.0 μM): +++ (+++ = <50% Vehicle)
% MIP-1β (DMSO + LPS = 100%) (neutrophil; 3000.0 μM): +++ (+++ = <50% Vehicle)
IL1β % DMSO control [1]: = ((=) 90%> <110% DMSO)
IL6 % DMSO control [1]: = ((=) 90%> <110% DMSO)
TNFα % of DMSO control [1]: = ((=) 90%> <110% DMSO)
% Change in TEER from DMSO (Caco-2 colonocytes; 1 mM + cytokines): − (<125%: −)
% Change in TEER from DMSO (Caco-2 colonocytes; 3 mM + cytokines): − (<125%: −)

COC(=O)c1csc(C(=O)c2c[nH]c3ccccc23)n1 [ITE, 2-(1′H-indole-3′-carbonyl)-thiazole-4-carboxylic acid methyl ester]
Average CYP1A1 mRNA levels (AhR; 1.0 μM): +++ (+++ = >10-fold Vehicle)

CC(O)CCO (stereo not shown) [butanediol, 1,3-butanediol]
% IL-8 (Vehicle + LPS = 100%) (neutrophil; 100.0 μM): − (− = >90% Vehicle)
% MIP-1α (Vehicle + LPS = 100%) (neutrophil; 100.0 μM): − (− = >90% Vehicle)
% MIP-1β (DMSO + LPS = 100%) (neutrophil; 100.0 μM): + (+ = <90% Vehicle)
% IL-8 (Vehicle + LPS = 100%) (neutrophil; 500.0 μM): − (− = >90% Vehicle)
% MIP-1α (Vehicle + LPS = 100%) (neutrophil; 500.0 μM): − (− = >90% Vehicle)
% MIP-1β (DMSO + LPS = 100%) (neutrophil; 500.0 μM): + (+ = <90% Vehicle)
IL1β % DMSO control [1]: = ((=) 90%> <110% DMSO)
Average CYP1A1 mRNA levels (AhR; 500.0 μM): − (- = <2-fold Vehicle)
